Assay [1] concerns the target T1, Mu-type opioid receptor (Homo sapiens, UniProt P35372). Description: Antagonist activity assessed as inhibition of loperamide-stimulated [35S]GTPgammaS binding to human mu opioid receptor expressed in CHO cells. The assay is classed as functional, cell-based.
Assay [2] has as its target T1, Mu-type opioid receptor. Put plainly: Displacement of [3H]diprenorphine from human cloned mu opioid receptor expressed in CHO cells. Format: cell-based.
Assay [3] has as its target T2, Kappa-type opioid receptor (Homo sapiens, UniProt P41145). Description: Displacement of [3H]diprenorphine from human cloned kappa opioid receptor expressed in CHO cells. The assay is classed as cell-based.
Assay [4] concerns the target T3, Delta-type opioid receptor (Homo sapiens, UniProt P41143). Put plainly: Displacement of [3H]diprenorphine from human cloned delta opioid receptor expressed in CHO cells. The assay is classed as cell-based.
In assay [5] the target is T2, Kappa-type opioid receptor. Put plainly: Antagonist activity assessed as inhibition of U50488-stimulated [35S]GTP-gamma-S binding to human kappa opioid receptor expressed in CHO cells. The assay is classed as functional, cell-based.
Assay [6] addresses T3, Delta-type opioid receptor. Put plainly: Antagonist activity assessed as inhibition of BW373U86-stimulated [35S]GTP-gamma-S binding to human delta opioid receptor expressed in CHO cells. Format: functional, cell-based.
The target of assay [7] is T3, Delta-type opioid receptor. Put plainly: Inhibition of [3H]diprenorphine binding to human cloned delta opioid receptor expressed in CHO cells at 10 uM. The assay is classed as cell-based.

SMILES strings stand for the structures.

Drawing on ChEMBL document CHEMBL1137297, “Synthesis and pharmacological evaluation of novel octahydro-1H-pyrido[1,2-a]pyrazine as mu-opioid receptor antagonists” (J Med Chem, 2006), this text covers IC50, Ki and inhibition for 32 compounds.

T2 sequence (P41145 whole entry): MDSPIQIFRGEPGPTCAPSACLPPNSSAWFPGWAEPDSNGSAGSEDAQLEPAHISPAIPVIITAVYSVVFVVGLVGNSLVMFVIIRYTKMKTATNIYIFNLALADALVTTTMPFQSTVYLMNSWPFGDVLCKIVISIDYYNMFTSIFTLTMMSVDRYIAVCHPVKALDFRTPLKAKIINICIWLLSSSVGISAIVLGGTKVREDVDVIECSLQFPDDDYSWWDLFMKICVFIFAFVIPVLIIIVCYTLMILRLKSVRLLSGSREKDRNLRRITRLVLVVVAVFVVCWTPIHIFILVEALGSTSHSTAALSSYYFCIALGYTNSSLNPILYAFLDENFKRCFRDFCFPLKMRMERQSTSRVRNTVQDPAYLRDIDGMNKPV
T1 sequence (P35372 whole entry): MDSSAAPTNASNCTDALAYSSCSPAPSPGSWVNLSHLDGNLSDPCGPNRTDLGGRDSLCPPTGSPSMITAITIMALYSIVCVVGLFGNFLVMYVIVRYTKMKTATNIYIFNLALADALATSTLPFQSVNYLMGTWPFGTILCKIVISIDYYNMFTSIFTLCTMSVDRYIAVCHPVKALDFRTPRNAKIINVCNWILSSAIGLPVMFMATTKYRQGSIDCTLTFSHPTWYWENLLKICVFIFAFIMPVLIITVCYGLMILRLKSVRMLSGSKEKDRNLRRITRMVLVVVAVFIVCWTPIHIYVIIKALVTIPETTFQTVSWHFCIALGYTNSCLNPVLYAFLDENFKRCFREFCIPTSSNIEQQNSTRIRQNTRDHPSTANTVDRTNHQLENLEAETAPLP
T3 sequence (P41143 whole entry): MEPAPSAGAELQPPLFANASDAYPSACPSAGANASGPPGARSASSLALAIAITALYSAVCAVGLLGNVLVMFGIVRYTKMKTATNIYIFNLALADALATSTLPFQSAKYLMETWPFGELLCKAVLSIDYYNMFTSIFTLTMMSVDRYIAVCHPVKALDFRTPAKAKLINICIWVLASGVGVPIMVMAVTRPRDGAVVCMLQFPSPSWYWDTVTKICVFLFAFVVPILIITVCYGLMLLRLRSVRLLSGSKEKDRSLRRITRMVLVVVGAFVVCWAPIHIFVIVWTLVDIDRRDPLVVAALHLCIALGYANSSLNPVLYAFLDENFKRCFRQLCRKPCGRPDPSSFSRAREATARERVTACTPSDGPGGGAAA

Consider `Cc1cccc(CN2CCN3C[C@H](C)[C@](C)(c4cccc(O)c4)C[C@@H]3C2)c1`, for which the IC50 in assay [1] was 1.5 nM. Also, the inhibitory constant (Ki) in assay [2] was determined as 1.3 nM; in assay [3] it was 130 nM; in assay [4], 510 nM.
Consider `C[C@H]1CN2C[C@H](c3ccccc3)CC[C@H]2C[C@@]1(C)c1cccc(O)c1`, for which the figures for the IC50 in assay [5] and in assay [6] were 3.2 nM and 51 nM, respectively.
For `C[C@H]1CN2CCN(Cc3cccc(O)c3)C[C@H]2C[C@@]1(C)c1cccc(O)c1`, in assay [1], the 50% inhibitory concentration (IC50) amounted to 4.5 nM. For the same compound, the figures for the inhibition constant Ki in assay [2], in assay [3] and in assay [4] were 4.3 nM, 56 nM and 310 nM, respectively.
As for `COC(=O)c1cccc(CN2CCN3C[C@H](C)[C@](C)(c4cccc(O)c4)C[C@@H]3C2)c1`, the inhibition in assay [7] turned out to be 43%. The IC50 in assay [1] worked out at 6.9 nM. Also, the inhibition constant Ki was determined as 11 nM in assay [2] and 140 nM in assay [3].
Turning to `C[C@H]1CN2CCN(C(=O)Nc3ccccc3)C[C@H]2C[C@@]1(C)c1cccc(O)c1`, the IC50 in assay [1] came to 16 nM. Besides, the Ki in assay [2] was 31 nM; in assay [3], 420 nM; in assay [4] it was 540 nM.
On to `C[C@H]1CN2CCN(CCc3ccccc3)C[C@H]2C[C@@]1(C)c1cccc(O)c1`, for which the values for the IC50 in assay [1], in assay [5] and in assay [6] were 2 nM, 20 nM and 310 nM, respectively.
For the compound `C[C@H]1CN2CCN(c3ccccc3)C[C@H]2C[C@@]1(C)c1cccc(O)c1`, in assay [1], the concentration for half-maximal inhibition (IC50) was determined as 54 nM. The figures for the Ki in assay [2], in assay [3] and in assay [4] were 220 nM, 3700 nM and 960 nM, respectively.
On to `CC(C)[C@H]1CN2C[C@H](C)[C@](C)(c3cccc(O)c3)C[C@@H]2CN1`, for which the inhibition in assay [7] is 15%. In assay [1], the IC50 came to 66 nM. Also, the inhibition constant Ki in assay [2] came to 380 nM; in assay [3] it was 57 nM.
With `Cc1ccc(CN2CCN3C[C@H](C)[C@](C)(c4cccc(O)c4)C[C@@H]3C2)cc1`, the concentration for half-maximal inhibition (IC50) in assay [1] is 9.5 nM. The inhibition constant (Ki) in assay [2] amounted to 14 nM; in assay [3], 300 nM; in assay [4] it was 350 nM.
With `C[C@H]1CN2CCN(Cc3ccc4ccccc4c3)C[C@H]2C[C@@]1(C)c1cccc(O)c1`, in assay [7], the inhibition stood at 49%. In assay [1], the half-inhibitory concentration (IC50) came to 74 nM. Also, the Ki in assay [2] amounted to 90 nM; in assay [3], 980 nM.
Consider `C[C@H]1CN2CCN(Cc3ccc(O)cc3)C[C@H]2C[C@@]1(C)c1cccc(O)c1`, for which, in assay [1], the IC50 was 5.7 nM. In addition, the inhibitory constant (Ki) in assay [2] was found to be 10 nM; in assay [3], 270 nM; in assay [4] it was 220 nM.
With `C[C@H]1CN2CCN(CCCc3ccccc3)C[C@H]2C[C@@]1(C)c1cccc(O)c1`, the IC50 in assay [1] turned out to be 13 nM. Also, the figures for the inhibition constant Ki in assay [2], in assay [3] and in assay [4] were 36 nM, 950 nM and 960 nM, respectively.
With `C[C@H]1CN2C[C@H](c3ccccc3)N(Cc3ccccc3)C[C@H]2C[C@@]1(C)c1cccc(C(N)=O)c1`, the IC50 in assay [1] is 28 nM. The Ki was found to be 17 nM in assay [2], 460 nM in assay [3] and 1100 nM in assay [4].
For `C[C@H]1CN2CCN(Cc3ccsc3)C[C@H]2C[C@@]1(C)c1cccc(O)c1`, the half-maximal inhibitory concentration (IC50) in assay [1] came out at 1.4 nM. In addition, the inhibition constant (Ki) in assay [2] amounted to 3 nM; in assay [3], 38 nM; in assay [4], 340 nM.
As to `C[C@H]1CN2C[C@@H](Cc3ccccc3)NC[C@H]2C[C@@]1(C)c1cccc(O)c1`, in assay [1], the IC50 was determined as 22 nM. In addition, the inhibition constant Ki came to 25 nM in assay [2], 130 nM in assay [3] and 410 nM in assay [4].
In the case of `C[C@H]1CN2C[C@@H](c3ccccc3)NC[C@H]2C[C@@]1(C)c1cccc(O)c1`, in assay [1], the IC50 was 52 nM. Besides, the Ki in assay [2] stood at 180 nM; in assay [3], 430 nM; in assay [4], 660 nM.
`C[C@H]1CN2CCN(Cc3cccc(OCc4ccccc4)c3)C[C@H]2C[C@@]1(C)c1cccc(O)c1` displayed an inhibition in assay [7] of 43%. Moreover, the IC50 in assay [1] worked out at 22 nM. The Ki in assay [2] turned out to be 13 nM; in assay [3], 33 nM.
Consider `C[C@H]1CN2CCN(C(=O)c3ccccc3)C[C@H]2C[C@@]1(C)c1cccc(O)c1`, for which the 50% inhibitory concentration (IC50) in assay [1] amounted to 2.1 nM; in assay [5] it was 50 nM; in assay [6], 14 nM. Also, in assay [3], the inhibitory constant (Ki) turned out to be 180 nM.
For the compound `C[C@H]1CN2CCN(Cc3cccnc3)C[C@H]2C[C@@]1(C)c1cccc(O)c1`, the IC50 in assay [1] is 7.5 nM. Further, the Ki in assay [2] was found to be 13 nM; in assay [3], 400 nM; in assay [4], 840 nM.
With `C[C@H]1CN2CCN(Cc3ccoc3)C[C@H]2C[C@@]1(C)c1cccc(O)c1`, the concentration for half-maximal inhibition (IC50) in assay [1] amounted to 6.1 nM. Moreover, the Ki in assay [2] was found to be 12 nM; in assay [3], 120 nM; in assay [4], 740 nM.
For `C[C@H]1CN2CCN(C(=O)Cc3ccccc3)C[C@H]2C[C@@]1(C)c1cccc(O)c1` the same measures were 6.7 nM, 17 nM, 540 nM and 71 nM.
Consider `C[C@H]1CN2CCN(Cc3ccco3)C[C@H]2C[C@@]1(C)c1cccc(O)c1`, for which the IC50 in assay [1] worked out at 7.2 nM. The Ki in assay [2] stood at 7.4 nM; in assay [3], 430 nM; in assay [4] it was 1500 nM.
`CC(=O)N1C[C@H]2C[C@@](C)(c3cccc(O)c3)[C@@H](C)CN2C[C@@H]1c1ccccc1`: the inhibition in assay [7] came to 57%. Besides, the IC50 in assay [1] turned out to be 220 nM. For the same compound, the Ki worked out at 94 nM in assay [2] and 620 nM in assay [3].
As to `C[C@H]1CN2CCN(Cc3ccccn3)C[C@H]2C[C@@]1(C)c1cccc(O)c1`, the half-maximal inhibitory concentration (IC50) in assay [1] was determined as 13 nM. Further, the inhibition constant Ki in assay [2] was determined as 20 nM; in assay [3], 390 nM; in assay [4] it was 1100 nM.
In turn, `C[C@H]1CN2CCN(Cc3cccc(Oc4ccccc4)c3)C[C@H]2C[C@@]1(C)c1cccc(O)c1` showed an inhibition in assay [7] of 55%. Besides, the half-inhibitory concentration (IC50) in assay [1] came to 9.7 nM. In addition, the figures for the Ki in assay [2] and in assay [3] were 21 nM and 24 nM, respectively.
For `C[C@H]1CN2C[C@H](c3ccccc3)NC[C@H]2C[C@@]1(C)c1cccc(O)c1`, the figures for the half-inhibitory concentration (IC50) in assay [1], in assay [5] and in assay [6] were 1.1 nM, 3.2 nM and 98 nM, respectively.
For the compound `C[C@H]1CN2CCN(Cc3ccc(Cl)cc3)C[C@H]2C[C@@]1(C)c1cccc(O)c1`, in assay [1], the IC50 worked out at 42 nM. In addition, the inhibitory constant (Ki) is 17 nM in assay [2], 280 nM in assay [3] and 420 nM in assay [4].
The corresponding values for `C[C@H]1CN2CCCN(Cc3ccccc3)C[C@H]2C[C@@]1(C)c1cccc(O)c1` are 15 nM, 160 nM, 540 nM and 2900 nM.
The corresponding values for `C[C@H]1CN2CCN(Cc3cccc(Cl)c3)C[C@H]2C[C@@]1(C)c1cccc(O)c1` are 1.8 nM, 1.5 nM, 83 nM and 360 nM.
Turning to `C[C@H]1CN2CCN(Cc3ccccc3)C[C@H]2C[C@@]1(C)c1cccc(O)c1`, the IC50 is 0.73 nM in assay [1], 8.4 nM in assay [5] and 150 nM in assay [6]. In addition, the Ki in assay [2] worked out at 1.2 nM; in assay [3], 43 nM.
Turning to `C[C@H]1CN2C[C@H](Cc3ccccc3)NC[C@H]2C[C@@]1(C)c1cccc(O)c1`, the half-inhibitory concentration (IC50) in assay [1] was 2.8 nM; in assay [5], 16 nM; in assay [6], 33 nM. For the same compound, the inhibitory constant (Ki) in assay [3] amounted to 86 nM.
As to `C[C@H]1CN2CCN(Cc3cccc4ccccc34)C[C@H]2C[C@@]1(C)c1cccc(O)c1`, the inhibition in assay [7] was determined as 60%. Moreover, the half-inhibitory concentration (IC50) in assay [1] came out at 16 nM. Moreover, the Ki in assay [2] turned out to be 3.5 nM; in assay [3], 230 nM.
